Assays:
Casein kinase 1 epsilon = target: T1, Casein kinase 1 epsilon (Homo sapiens, UniProt P49674); test: thermal proteome profiling (iTRAQ LC-MS/MS), isothermal dose-response stabilization at […] °C, SH-SY5Y cells; format: biochemical
T1 construct: gene CSNK1E

Nicastrin = target: T2, Nicastrin (Homo sapiens, UniProt Q92542); test: as above; format: biochemical
T2 construct: gene NCSTN
T2 sequence (Q92542 34-709): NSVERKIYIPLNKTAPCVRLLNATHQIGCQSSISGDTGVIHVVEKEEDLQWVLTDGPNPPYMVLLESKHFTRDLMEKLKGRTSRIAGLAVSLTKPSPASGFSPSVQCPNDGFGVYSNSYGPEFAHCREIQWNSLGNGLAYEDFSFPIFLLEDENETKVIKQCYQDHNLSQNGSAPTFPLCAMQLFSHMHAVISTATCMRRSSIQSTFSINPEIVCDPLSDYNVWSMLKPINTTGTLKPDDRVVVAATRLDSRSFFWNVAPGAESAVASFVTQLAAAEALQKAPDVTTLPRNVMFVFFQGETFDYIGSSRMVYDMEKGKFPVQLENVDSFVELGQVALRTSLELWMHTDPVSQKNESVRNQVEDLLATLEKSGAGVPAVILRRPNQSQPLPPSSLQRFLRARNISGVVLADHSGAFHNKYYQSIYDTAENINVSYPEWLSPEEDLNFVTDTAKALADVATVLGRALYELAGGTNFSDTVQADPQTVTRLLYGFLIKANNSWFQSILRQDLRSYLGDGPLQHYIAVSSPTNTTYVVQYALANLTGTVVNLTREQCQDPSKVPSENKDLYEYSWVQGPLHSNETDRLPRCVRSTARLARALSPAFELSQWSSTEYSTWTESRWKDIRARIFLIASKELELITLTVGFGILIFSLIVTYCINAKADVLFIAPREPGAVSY

T1 sequence (P49674 whole entry): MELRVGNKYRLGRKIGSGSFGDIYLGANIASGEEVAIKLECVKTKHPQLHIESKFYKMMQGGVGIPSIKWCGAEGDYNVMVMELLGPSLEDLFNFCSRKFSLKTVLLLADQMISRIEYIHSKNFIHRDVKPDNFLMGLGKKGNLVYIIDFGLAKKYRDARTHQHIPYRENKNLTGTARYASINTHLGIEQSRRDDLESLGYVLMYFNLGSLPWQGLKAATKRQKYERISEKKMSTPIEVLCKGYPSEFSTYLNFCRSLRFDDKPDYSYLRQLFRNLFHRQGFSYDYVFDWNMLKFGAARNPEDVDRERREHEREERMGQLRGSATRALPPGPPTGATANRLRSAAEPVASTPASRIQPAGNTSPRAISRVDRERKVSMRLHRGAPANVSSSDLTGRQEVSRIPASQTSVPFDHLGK

- EC50 (Casein kinase 1 epsilon): 7.22 µM
- EC50 (Nicastrin): 6.03 µM
SMILES: C[C@H](CCC(=O)O)[C@H]1CC[C@H]2[C@@H]3CC[C@@H]4C[C@H](O)CC[C@]4(C)[C@H]3C[C@H](O)[C@]12C [deoxycholic acid]
